The values that follow come from patent publication US11802133B2, “Heterocyclic compounds as monoacylglycerol lipase inhibitors” (Hoffmann-La Roche Inc., priority 2018, dated 2023).

In assay [1] the target is MAGL (recombinant wild-type) (Homo sapiens (Human), UniProt Q99685). The experiment in a line: 4-NPA assay: MAGL inhibitory activity by hydrolysis of 4-nitrophenylacetate (absorbance at 405 nm). The settings on record: measured in 4-NPA assay (footnote [a]); 1 nM MAGL, 300 μM 4-nitrophenylacetate. The format is biochemical. As to the method:
This assay is hereinafter abbreviated “4-NPA assay”.
The plate was shaked for 1 min at 2000 rpm (Variomag Teleshake) and then incubated for 15 min at RT. […] The final concentrations in the assay were 1 nM MAGL and 300 μM 4-Nitrophenylacetate. […] A second measurement was then done after incubation for 80 min at RT. From the two measurements, the slope was calculated by subtracting the first from the second measurement.

The target in assay [2] is MAGL (Homo sapiens (Human), UniProt Q99685). Kind of assay: 2-AG assay: MAGL inhibitory activity by hydrolysis of 2-arachidonoylglycerol to arachidonic acid (mass spectrometry). The assay is classed as biochemical. The settings on record: measured in 2-AG assay (footnote [b]); 8 μM 2-arachidonoylglycerol. The protocol: Alternatively, compounds were profiled for MAGL inhibitory activity by determining the enzymatic activity by following the hydrolysis of the natural substrate 2-arachidonoylglycerol resulting in arachidonic acid, which can be followed by mass spectrometry. This assay is hereinafter abbreviated “2-AG assay”.
Sequence of MAGL (Q99685 whole entry, species assumed): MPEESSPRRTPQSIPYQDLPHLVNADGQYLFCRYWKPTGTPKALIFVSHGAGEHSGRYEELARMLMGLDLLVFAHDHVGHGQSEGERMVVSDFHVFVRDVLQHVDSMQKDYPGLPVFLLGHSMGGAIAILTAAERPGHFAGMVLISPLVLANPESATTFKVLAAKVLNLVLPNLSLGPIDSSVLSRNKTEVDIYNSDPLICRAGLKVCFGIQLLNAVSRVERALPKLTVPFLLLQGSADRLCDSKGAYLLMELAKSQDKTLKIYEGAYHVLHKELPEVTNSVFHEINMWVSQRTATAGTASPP
A C18 SPE cartridge (G9205A) was used in an acetonitrile/water liquid setup. […] The activity of the compounds was calculated based on the ratio of intensities [arachidonic acid/d8-arachidonic acid].

Each structure is given as a SMILES string.

Sequence of MAGL (recombinant wild-type) (Q99685 whole entry, species assumed): as above

By IC50 is commonly meant the concentration needed to halve the response being measured. Regarding `CC(C)(C)c1csc(CC2CCN(C(=O)N3CC[C@@H]4OCC(=O)N[C@@H]4C3)CC2)n1` [Example 1, (+)-(4aR,8aS)-6-(4-((4-(tert-Butyl)thiazol-2-yl)methyl)piperidine-1-carbonyl)hexahydro-2H-pyrido[4,3-b][1,4]oxazin-3(4H)-one], in assay [1], the IC50 came out at 40 nM.
Turning to `O=C1CO[C@H]2CCN(C(=O)N3CCC(Cc4ccc(C(F)(F)F)cc4N4CCCC4)CC3)C[C@H]2N1` [Example 53], the half-maximal inhibitory concentration (IC50) in assay [1] was 6 nM.
Same read-out and setting: the same measure for `O=C1CO[C@H]2CCN(C(=O)N3CCC(Cc4nc(-c5ccccc5)no4)CC3)C[C@H]2N1` [Example 18]: 892 nM; for `O=C1CO[C@H]2CCN(C(=O)N3CC(OCc4ccc(OC(F)(F)F)cc4F)C3)C[C@H]2N1` [Example 77]: 16 nM.
Take `O=C1CO[C@H]2CCN(C(=O)N3CCC(Oc4ccc(C(F)(F)F)cc4)CC3)C[C@H]2N1` [Example 13]: the half-maximal inhibitory concentration (IC50) in assay [1] stood at 87 nM.
Consider `O=C1CO[C@@H]2CCN(C(=O)N3CC(OCc4ccc(C(F)(F)F)cc4F)C3)C[C@@H]2N1` [Example 30], for which the concentration for half-maximal inhibition (IC50) in assay [1] was determined as 273 nM.
With `O=C1CO[C@H]2CCN(C(=O)N3CCC(F)(COc4ccc(F)cc4Cl)CC3)C[C@H]2N1` [Example 64, (4aR,8aS)-6-(4-((2-Chloro-4-fluorophenoxy)methyl)-4-fluoropiperidine-1-carbonyl)hexahydro-2H-pyrido[4,3-b][1,4]oxazin-3(4H)-one], the half-inhibitory concentration (IC50) in assay [1] turned out to be 40 nM.
Consider `O=C1CO[C@H]2CCN(C(=O)N3CCC(Cc4ccc(Cl)c(F)c4)CC3)C[C@H]2N1` [Example 33], for which the IC50 in assay [1] came to 4 nM.
As to `O=C1CO[C@H]2CCN(C(=O)N3CC(COc4ccc(F)cc4Cl)C3)C[C@H]2N1` [Example 57], the half-maximal inhibitory concentration (IC50) in assay [1] worked out at 49 nM.
For the compound `O=C1CO[C@@H]2CCN(C(=O)N3CCC(Cn4cc(C(F)(F)F)cn4)CC3)C[C@@H]2N1` (stereo in doubt) [Example 26, (4aS,8aR)-6-(4-((4-(Trifluoromethyl)-1H-pyrazol-1-yl)methyl)piperidine-1-carbonyl)hexahydro-2H-pyrido[4,3-b][1,4]oxazin-3(4H)-one], in assay [1], the IC50 was found to be 684 nM.
For the compound `CC1C(OCc2ccc(C(F)(F)F)cc2)CN1C(=O)N1CC[C@@H]2OCC(=O)N[C@@H]2C1` (single isomer, unassigned) [Example 103], in assay [1], the 50% inhibitory concentration (IC50) came to 5 nM.
As to `O=C1CO[C@H]2CCN(C(=O)N3CCC(Cc4ccc(C(F)(F)F)cc4-c4cn[nH]c4)CC3)C[C@H]2N1` [Example 81], in assay [1], the IC50 stood at 6 nM.
With `O=C1CO[C@H]2CCN(C(=O)N3CC(COc4ccc(C(F)(F)F)cc4Cl)C3)C[C@H]2N1` [Example 62], in assay [1], the 50% inhibitory concentration (IC50) came out at 9 nM.
Consider `O=C1CO[C@H]2CCN(C(=O)N3CCC(COc4ccc(OC(F)(F)F)cc4Cl)CC3)C[C@H]2N1` [Example 46], for which the half-inhibitory concentration (IC50) in assay [1] is 5 nM.
Consider `O=C1CO[C@@H]2CCN(C(=O)N3CCC(COc4ccc(F)cc4Cl)CC3)C[C@@H]2N1` [Example 23], for which the IC50 in assay [1] stood at 856 nM.
Regarding `O=C1CO[C@@H]2CCN(C(=O)N3CCC(COc4ccc(F)cc4F)CC3)C[C@@H]2N1` [Example 49], the IC50 in assay [1] amounted to 363 nM.
Turning to `O=C1CO[C@H]2CCN(C(=O)N3CCC(COc4ccc(Cl)cc4F)CC3)C[C@H]2N1` [Example 50], in assay [1], the IC50 is 8 nM.
Regarding `CC1C(OCc2ccc(C(F)(F)F)cc2)CN1C(=O)N1CC[C@@H]2OCC(=O)N[C@@H]2C1` (stereo partly drawn) [Example 105, (4aR,8aS)-6-[2-Methyl-3-[[4-(trifluoromethyl)phenyl]methoxy]azetidine-1-carbonyl]-4,4a,5,7,8,8a-hexahydropyrido[4,3-b][1,4]oxazin-3-one], in assay [1], the IC50 is 285 nM.
`O=C1CO[C@H]2CCN(C(=O)N3CCC(COc4ccc(Cl)cc4)CC3)C[C@H]2N1` [Example 9]: the IC50 in assay [1] was determined as 35 nM.
Same read-out and setting: the same measure for `O=C1CO[C@H]2CCN(C(=O)N3CCC(COc4ccccc4)CC3)C[C@H]2N1` [Example 15]: 190 nM.
Still for that read-out and setting: the same measure for `O=C1CO[C@H]2CCN(C(=O)N3CC(Cc4ccc(C(F)(F)F)cc4)C3)C[C@H]2N1` [Example 36]: 119 nM; for `O=C1CO[C@H]2CCN(C(=O)N3CCC(COc4ccc(F)cc4C(F)(F)F)CC3)C[C@H]2N1` [Example 51]: 10 nM.
As for `CC(C)(C)c1coc(CC2CCN(C(=O)N3CC[C@@H]4OCC(=O)N[C@@H]4C3)CC2)n1` [Example 2], the IC50 in assay [1] came to 46 nM.
Consider `O=C1CO[C@H]2CCN(C(=O)N3CCC(Cc4ccc(OC(F)(F)F)cc4)CC3)C[C@H]2N1` [Example 31], for which the IC50 in assay [1] came out at 49 nM.
On the same count and under the same terms, the same measure for `N#Cc1ccc(OCC2CCN(C(=O)N3CC[C@@H]4OCC(=O)N[C@@H]4C3)CC2)c(Cl)c1` [Example 59]: 12 nM.
Take `O=C1CO[C@H]2CCN(C(=O)N3CCC(Cc4ccc(C(F)(F)F)cc4)CC3)C[C@@H]2N1` [Example 17]: the half-maximal inhibitory concentration (IC50) in assay [1] is 268 nM.
As for `O=C1CO[C@H]2CCN(C(=O)N3CCC(Cc4ccc(C(F)(F)F)cc4Cl)CC3)C[C@H]2N1` [Example 99], in assay [1], the IC50 amounted to 12 nM.
On to `CC1(COc2ccc(F)cc2Cl)CCN(C(=O)N2CC[C@H]3OCC(=O)N[C@H]3C2)CC1` [Example 48], for which the half-inhibitory concentration (IC50) in assay [1] was 288 nM.
The same measure, in the same setting: the same measure for `O=C1CO[C@H]2CCN(C(=O)N3CCC(COc4ccc(Cl)cc4)C3)C[C@H]2N1` (stereo partly drawn) [Example 96]: 293 nM.
For the compound `CC(C)(C)c1coc(CC2CCN(C(=O)N3CC[C@@H]4OCC(=O)N[C@@H]4C3)CC2)n1` [Example 4], the IC50 in assay [1] worked out at 92 nM.
With `O=C1CO[C@H]2CCN(C(=O)N3CC(OCc4ccc(C(F)(F)F)c(F)c4)C3)C[C@H]2N1` [Example 114], the IC50 in assay [1] came to 5 nM.
Regarding `O=C1CO[C@H]2CCN(C(=O)N3CC(COCc4c(F)cccc4C(F)(F)F)C3)C[C@H]2N1` [Example 102], in assay [1], the IC50 worked out at 22 nM.
As for `O=C1CO[C@H]2CCN(C(=O)N3CCC(Cc4ccc(C(F)(F)F)cc4)CC3)C[C@H]2N1` [Example 8], the IC50 in assay [1] was 13 nM.
The same measure, in the same setting: the figure for `O=C1CO[C@H]2CCN(C(=O)N3CCC(CN4CCC(F)(F)CC4)CC3)C[C@H]2N1` [Example 37, (4aR,8aS)-6-(4-((4,4-Difluoropiperidin-1-yl)methyl)piperidine-1-carbonyl)hexahydro-2H-pyrido[4,3-b][1,4]oxazin-3(4H)-one] is 1300 nM; for `O=C1CO[C@@H]2CCN(C(=O)N3CCC(Cc4ccc(C(F)(F)F)cc4)CC3)C[C@H]2N1` [Example 19] it is 1500 nM; for `O=C1CO[C@H]2CCN(C(=O)N3CC(COc4ccc(F)cc4Cl)C3)C[C@H]2N1` [Example 28] it is 18 nM.
Take `O=C1CO[C@H]2CCN(C(=O)N3CCC(COc4ccc(C(F)(F)F)cc4F)CC3)C[C@H]2N1` [Example 52]: the 50% inhibitory concentration (IC50) in assay [1] came out at 58 nM.
Consider `O=C1CO[C@H]2CCN(C(=O)N3CCN(Cc4ccc(Cl)cc4)CC3)C[C@H]2N1` [Example 22], for which the IC50 in assay [1] was determined as 2100 nM.
Consider `O=C1CO[C@@H]2CCN(C(=O)N3CCC(Cc4ccc(C(F)(F)F)cc4)CC3)C[C@@H]2N1` [Example 20], for which, in assay [1], the IC50 is 1800 nM.
Consider `Cc1ccc(COC2CN(C(=O)N3CC[C@@H]4OCC(=O)N[C@@H]4C3)C2)cc1C(F)(F)F` [Example 294], for which inhibition in assay [2] was half-maximal at 3000 nM (IC50).
Still for that read-out and setting: the figure for `O=C1CO[C@H]2CCN(C(=O)N3CCC(Oc4ccc(C(F)(F)F)c(C5CC5)c4)CC3)C[C@H]2N1` [Example 208] is 3 nM.
In assay [2], `O=C1CO[C@H]2CCN(C(=O)N3CC(Cc4cccc(OC(F)(F)F)c4)C3)C[C@H]2N1` [Example 282] had a half-inhibitory concentration (IC50) of 136 nM.
In assay [2], `O=C1CO[C@H]2CCN(C(=O)N3CCC(Cc4ccc(C(F)(F)F)cc4F)CC3)C[C@H]2N1` [Example 92] returned an IC50 of 14 nM.
Take `O=C1CO[C@H]2CCN(C(=O)N3CCC(Oc4ccc(C(F)(F)F)c(Cl)c4)CC3)C[C@H]2N1` [Example 255]: 10 nM corresponded to half-maximal inhibition in assay [2] (IC50).
As for `O=C1CO[C@H]2CCN(C(=O)N3CC(Oc4ccc(C(F)(F)F)c(N5CC6(CCCCO6)C5)c4)C3)C[C@H]2N1` [Example 270, (+)-(4aR,8aS)-6-[3-[3-(5-oxa-2-azaspiro[3.5]nonan-2-yl)-4-(trifluoromethyl)phenoxy]azetidine-1-carbonyl]-4,4a,5,7,8,8a-hexahydropyrido[4,3-b][l,4]oxazin-3-one], half-maximal inhibition in assay [2] (IC50) was put at 61 nM.
In turn, `O=C1CO[C@H]2CCN(C(=O)N3CC(OCc4ccc(F)cc4C(F)(F)F)C3)C[C@H]2N1` [Example 280] registered an IC50 in assay [2] of 41 nM.
Compound `O=C1CO[C@H]2CCN(C(=O)N3CC(/C=C/c4c(F)cccc4C(F)(F)F)C3)C[C@H]2N1` [Example 289] came in with an IC50 in assay [2] of 3 nM.
The compound `O=C1CO[C@H]2CCN(C(=O)N3CC(OCc4ccc(C(F)(F)F)cn4)C3)C[C@H]2N1` [Example 230] came in with an IC50 in assay [2] of 73 nM.
Regarding `Cc1cc(OCC2CCN(C(=O)N3CC[C@@H]4OCC(=O)N[C@@H]4C3)CC2)cnc1C(F)(F)F` [Example 89], in assay [2], inhibition was half-maximal at 34 nM (IC50).
The compound `Cc1cc(OC(F)(F)F)ccc1COC1CN(C(=O)N2CC[C@@H]3OCC(=O)N[C@@H]3C2)C1C` (stereo partly drawn) [Example 252] yielded a half-inhibitory concentration (IC50) in assay [2] of 5 nM.
In assay [2], `COc1cccc(C(F)(F)F)c1CCC1CN(C(=O)N2CC[C@@H]3OCC(=O)N[C@@H]3C2)C1` [Example 218] came in with an IC50 of 3 nM.
